EC50, Emax and Ki data for two compounds are collected here from US8987287B2, “Spirocyclic morphinans and their use” (Purdue Pharma L.P., priority 2012, dated 2015).

The target of assay [1] is T1, δ opioid receptor (Homo sapiens (Human), UniProt P41143). The experiment in a line: δ-opioid receptor [35S]GTPγS functional assay, HEK-293 or CHO cells. Type of assay: biochemical. Particulars: for Emax: relative to met-enkephalin, HEK-293 or CHO cells. The protocol: (§1) δ-Opioid Receptor Functional Assay Procedures: Functional [^35S]GTPγS binding assays were conducted as follows. δ opioid receptor membrane solution was prepared by sequentially adding final concentrations of 0.026 μg/μl δ membrane protein (Perkin Elmer, Shelton, Conn.), 10 μg/mL saponin, 3 μM GDP and 0.20 nM [^35S]GTPγS to binding buffer (100 mM NaCl, 10 mM MgCl2, 20 mM HEPES, pH 7.4) on ice. The prepared membrane solution (190 μl/well) was transferred to 96-shallow well polypropylene plates containing 10 μl of 20× concentrated stock solutions of agonist prepared in DMSO. Plates were incubated for 30 min at a temperature of about 25° C. with shaking. Reactions were terminated by rapid filtration onto 96-well Unifilter GF/B filter plates (Perkin Elmer, Shelton, Conn.) using a 96-well tissue harvester (Packard) and followed by three filtration washes with 200 μl ice-cold binding buffer (10 mM NaH2PO4, 10 mM Na2HPO4, pH 7.4). Filter plates were subsequently dried at 50° C. for 1-2 hours. Fifty μl/well scintillation cocktail (Perkin Elmer, Shelton, Conn.) was added and plates were counted in a Packard Top-count for 1 min/well.
T1 sequence (P41143 whole entry, looked up): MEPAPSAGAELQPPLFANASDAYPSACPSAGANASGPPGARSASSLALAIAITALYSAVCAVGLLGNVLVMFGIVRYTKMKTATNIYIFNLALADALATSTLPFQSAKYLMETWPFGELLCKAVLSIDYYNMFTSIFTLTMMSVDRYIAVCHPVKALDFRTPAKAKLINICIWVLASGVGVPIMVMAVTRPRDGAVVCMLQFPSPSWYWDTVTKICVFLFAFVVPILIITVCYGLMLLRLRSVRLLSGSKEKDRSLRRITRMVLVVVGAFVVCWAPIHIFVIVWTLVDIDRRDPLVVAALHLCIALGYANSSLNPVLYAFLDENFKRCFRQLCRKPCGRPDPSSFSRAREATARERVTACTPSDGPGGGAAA
δ-Opioid Receptor Functional Data: δ GTP EC50 is the concentration of a compound providing 50% of the maximal response for the compound at a δ receptor.
δ GTP Emax (%) is the maximal effect elicited by a compound relative to the effect elicited by met-enkephalin.
(§2) In TABLE 2, activity response of certain Compounds of the Invention to the μ-, δ- and κ-opioid receptors was determined as described above for functional assays using HEK-293 or CHO cells.
(GTPγS is a poorly hydrolysed GTP analogue; its binding reports G protein activation.)

Assay [2] concerns the target T2, κ opioid receptor (Homo sapiens (Human), UniProt P41145). The assay can be described thus: κ-opioid receptor radioligand ([3H]-U69,593) dose-displacement binding assay. Particulars: binding affinity, read-out: Opioid Receptor Ki (nM) κ. The protocol:
κ-Opioid Receptor Binding Assay Procedures: Membranes from recombinantHEK-293 cells, CHO or U-2 OS cells expressing the recombinant human κ opioid receptor (κ) were prepared by lysing cells in ice cold hypotonic buffer (2.5 mM MgCl2, 50 mM HEPES, pH 7.4) (10 mL/10 cm dish) followed by homogenization with a tissue grinder/Teflon pestle. Membranes were collected by centrifugation at 30,000×g for 15 min at 4° C. and pellets were resuspended in hypotonic buffer to a final concentration of 1-3 mg/mL. Protein concentrations were determined using the BioRad protein assay reagent with bovine serum albumen as standard. Aliquots of κ receptor membranes were stored at −80° C.
Radioligand dose displacement assays used 0.4 nM [^3H]-U69,593 (GE Healthcare, Piscataway, N.J.; 40 Ci/mmole) with 15 μg membrane protein (recombinant κ opioid receptor expressed in HEK 293 cells; in-house prep) in a final volume of 200 μl binding buffer (5% DMSO, 50 mM Trizma base, pH 7.4). Non-specific binding was determined in the presence of 10 μM unlabeled naloxone or U69,593. All reactions were performed in 96-well polypropylene plates for 1 hour at a temperature of about 25° C. Binding reactions were terminated by rapid filtration onto 96-well Unifilter GF/C filter plates (Perkin Elmer, Shelton, Conn.) presoaked in 0.5% polyethylenimine (Sigma). Harvesting was performed using a 96-well tissue harvester (Perkin Elmer, Shelton, Conn.) followed by five filtration washes with 200 μl ice-cold binding buffer. Filter plates were subsequently dried at 50° C. for 1-2 hours. Fifty μl/well scintillation cocktail (Perkin Elmer, Shelton, Conn.) was added and plates were counted in a Packard Top-Count for 1 min/well.
(§3) In TABLE 1, binding affinity of certain Compounds of the Invention to the μ-, δ- and κ-opioid receptors was determined as described above.

Assay [3] concerns the target T2, κ opioid receptor. The experiment in a line: κ-opioid receptor [35S]GTPγS functional assay, HEK-293 or CHO cells. Format: biochemical. Particulars: for Emax: relative to U69,593, HEK-293 or CHO cells. The protocol: as §1, with “κ-Opioid” for “δ-Opioid”, “κ” for “δ”, “(in-house),” for “(Perkin Elmer, Shelton, Conn.),”, “2-3” for “1-2”, “Top-Count” for “Top-count”
κ-Opioid Receptor Functional Data: κ GTP EC50 is the concentration of a compound providing 50% of the maximal response for the compound at a κ receptor.
κ GTP Emax (%) is the maximal effect elicited by a compound relative to the effect elicited by U69,593.
as §2

The target of assay [4] is T1, δ opioid receptor. The assay can be described thus: δ-opioid receptor radioligand ([3H]-Naltrindole) dose-displacement binding assay. Particulars: binding affinity. The method, then:
δ-Opioid Receptor Binding Assay Procedures: δ-Opioid Receptor Binding Assay Procedures were conducted as follows. Radioligand dose-displacement assays used 0.3 nM [^3H]-Naltrindole (Perkin Elmer, Shelton, Conn.; 33.0 Ci/mmole) with 5 μg membrane protein (Perkin Elmer, Shelton, Conn.) in a final volume of 500 μl binding buffer (5 mM MgCl2, 5% DMSO, 50 mM Trizma base, pH 7.4). Non-specific binding was determined in the presence of 25 μM unlabeled naloxone. All reactions were performed in 96-deep well polypropylene plates for 1 hour at a temperature of about 25° C. Binding reactions were terminated by rapid filtration onto 96-well Unifilter GF/C filter plates (Perkin Elmer, Shelton, Conn.) presoaked in 0.5% polyethylenimine (Sigma). Harvesting was performed using a 96-well tissue harvester (Perkin Elmer, Shelton, Conn.) followed by five filtration washes with 500 μl ice-cold binding buffer. Filter plates were subsequently dried at 50° C. for 1-2 hours. Fifty μl/well scintillation cocktail (Perkin Elmer, Shelton, Conn.) was added and plates were counted in a Packard Top-Count for 1 min/well.
as §3

The EC50 is the concentration that produces a half-maximal response. A higher EC50 goes with a need for much substance. What is called Emax is the size of the effect at its maximum, as opposed to the concentration needed. A word on the Ki: it is a measure of affinity in units of concentration, obtained from inhibition or displacement.

Take `O=C1NC[C@@]2(CC[C@@]3(O)[C@H]4Cc5ccc(O)cc5[C@@]3(CCN4CC3CC3)C2)N1` [Compound 5, (4bR,4′S,8aS,9R)-11-(cyclopropylmethyl)-3,8a-dihydroxy-5,7,8,8a,9,10-hexahydrospiro[9,4b-(epiminoethano)phenanthrene-6,4′-imidazolidin]-2′-one]: the EC50 is 37 ± 15 nM in assay [1] and 67.2 ± 8.88 nM in assay [3]. For the same compound, the Emax in assay [1] was 34.3 ± 2.91%; in assay [3], 67.33 ± 0.33%. In addition, the Ki in assay [2] came out at 0.94 ± 0.18 nM; in assay [4], 272 ± 25.3 nM.
On to `O=C1NC(=O)[C@@]2(CC[C@@]3(O)[C@H]4Cc5ccc(O)cc5[C@@]3(CCN4CC3CC3)C2)N1` [Compound 3, (4bR,4′S,8aS,9R)-11-(cyclopropylmethyl)-3,8a-dihydroxy-5,7,8,8a,9,10-hexahydrospiro[9,4b-(epiminoethano)phenanthrene-6,4′-imidazolidine]-2′,5′-dione], for which the EC50 in assay [1] worked out at 34.8 ± 7.78 nM; in assay [3] it was 54.8 ± 12.6 nM. The Emax came out at 42.5 ± 2.84% in assay [1] and 80.2 ± 3.32% in assay [3]. Besides, the Ki in assay [2] stood at 0.6 ± 0.15 nM; in assay [4], 177 ± 36.7 nM.
